Assay results taken from ChEMBL document CHEMBL5724558, “Image-based profiling of drug vulnerabilities in CRC organoids” (2024).
Several values for one entry are separate records, joined by “and”; a condition that tells them apart may be missing. Identical values can stand only once.

How the values were obtained:
Assay type in all cases: functional, Homo sapiens
Parameters in all cases: dose or concentration left out as unconfirmed
[1] = test system: Colon cancer organoid; assay: Image-based profiling of donated chemical probes and chemogenomic kinase set in O06 CRC organoid. Image analysis is performed on the sum area metric, and the data were normalized to the DMSO control. After imaging the organoid viability is measured using the OneGloEX Luciferase Assay System. The normalized viability data and sum area are reported.
[2] = test system: Colon cancer organoid; assay: Image-based profiling of donated chemical probes and chemogenomic kinase set in O09 CRC organoid. Image analysis is performed on the sum area metric, and the data were normalized to the DMSO control. After imaging the organoid viability is measured using the OneGloEX Luciferase Assay System. The normalized viability data and sum area are reported.
[3] = test system: Colon cancer organoid; assay: Image-based profiling of donated chemical probes and chemogenomic kinase set in O21 CRC organoid. Image analysis is performed on the sum area metric, and the data were normalized to the DMSO control. After imaging the organoid viability is measured using the OneGloEX Luciferase Assay System. The normalized viability data and sum area are reported.

| Compound | Cell Viability ([1]; Replication number 1) | Cell Viability ([1]; Replication number 2) | Cell Viability ([2]; Replication number 1) | Cell Viability ([2]; Replication number 2) | Cell Viability ([3]; Replication number 1) | Cell Viability ([3]; Replication number 2) |
| --- | --- | --- | --- | --- | --- | --- |
| COc1cccc(CNC(=O)c2nc3scc(CN(C)Cc4ccccc4)c3c(=O)[nH]2)c1 [T-26f] | 86.0581% and 83.8408% | 86.5317% and 78.1759% | 195.868% and 94.1333% | 147.324% and 100.767% | 98.5646% and 83.8292% | 88.8685% and 86.2245% |
| Cc1ccc2[nH]c(CNCCCc3ccncc3)cc(=O)c2c1 [UCSF924NC] | 91.5293% and 106.883% | 122.187% and 128.063% | 130.653% and 96.5987% | 94.8728% and 93.7748% | 94.0995% and 104.765% | 78.5864% and 74.4392% |
| CN(C)C(=O)c1ccc(-c2cc(C(=O)N(C)C3CCCC3)no2)cc1O | 136.959% and 113.074% | 141.385% and 104.673% | 101.196% and 104.096% | 94.5921% and 98.6379% | 136.03% and 124.037% | 110.351% and 113.842% |
| COc1ccccc1S(=O)(=O)Nc1ccc2c(c1)CN(C)C(=O)N2 | 152.206% and 125.879% | 155.447% and 126.899% | 91.3379% and 107.573% | 93.4533% and 109.471% | 64.6421% and 66.4272% | 105.73% and 125.656% |
| C[C@H](c1ccnc(Nc2nc3ccc(-c4cc(N(C)C)ncn4)cc3[nH]2)c1)N1CCN(C(=O)CC(F)(F)F)CC1 [BAY-985] | 90.8191% and 114.52% | 122.693% and 118.685% | 71.2214% and 105.601% | 101.014% and 89.9598% | 79.4083% and 115.847% | 85.0487% and 108.163% |
| CO[C@H]1CC[C@H](CNc2ccc(S(=O)(=O)NC(=O)c3ccc(N4CCN(CC5=C(c6ccc(Cl)cc6)CC(C)(C)CC5)CC4)cc3Oc3cnc4[nH]ccc4c3)cc2[N+](=O)[O-])CC1 [A-1211212] | 28.9146% and 70.6883% | 21.4505% and 46.3719% | 50.8739% and 100.725% | 51.2572% and 87.2324% | 101.35% and 117.861% | 64.2952% and 94.8335% |
| Cc1sc2c(c1C)C(c1ccc(Cl)cc1)=N[C@@H](CC(=O)OC(C)(C)C)c1nnc(C)n1-2 | 19.6589% and 56.2953% | 20.5614% and 51.6198% | 38.4274% and 33.3849% | 47.2906% and 27.9949% | 79.5251% and 85.2384% | 67.4511% and 80.5489% |
| C[C@@H]1CCN(C(=O)CC#N)C[C@@H]1N(C)c1ncnc2[nH]ccc12.O=C(O)CC(O)(CC(=O)O)C(=O)O [TOFACITINIB CITRATE] | 54.8894% and 73.0004% | 74.5746% and 82.0566% | 230.679% and 101.979% | 85.7625% and 94.2129% | 116.988% and 133.24% | 108.318% and 111.695% |
| CC1=C(C)C(=O)C(C(C)(C)CC(=O)N(CCCCSC[C@H]2O[C@@H](n3cnc4c(N)ncnc43)[C@@H]3OC(C)(C)O[C@@H]32)Cc2cccc(-c3ccc(Cl)cc3)c2)=C(C)C1=O | 141.238% and 103.893% | 153.713% and 129.049% | 93.185% and 86.476% | 68.1346% and 85.8093% | 97.336% and 122.861% | 82.8638% and 97.7327% |
| CC1=CC(C)=[N+]2C1=C(CCCCc1cn(CC(=O)N3CCc4nc(NC(=O)[C@H]5CCN(C#N)C5)sc4C3)nn1)c1c(C)cc(C)n1[B-]2(F)F | 105.892% and 120.972% | 115.912% and 117.492% | 63.7608% and 86.8451% | 67.8399% and 91.9905% | 110.953% and 108.585% | 96.9264% and 89.225% |
| CO[C@H]1CNC[C@@H](OCC2CCC(F)(F)CC2)[C@@H]1Nc1ncc(-c2cncc(C)c2)c2cc(C)c(=O)[nH]c12 | 159.604% and 115.973% | 145.077% and 98.9379% | 183.516% and 118.934% | 127.49% and 119.734% | 117.954% and 107.577% | 97.9494% and 89.6778% |
| COCCc1ccc(-c2c(C)nc3c(N4CCOCC4)ccnn23)cn1 [JNJ-42396302] | 105.08% and 93.5817% | 103.056% and 100.227% | 173.111% and 114.826% | 149.141% and 104.184% | 87.7084% and 77.6404% | 105.989% and 98.0422% |
| CCOC(=O)CCNc1cc(N2CCc3ccccc3CC2)nc(-c2cccnc2)n1 | 133.48% and 94.953% | 206.72% and 136.936% | 137.493% and 102.473% | 150.843% and 118.309% | 67.1414% and 86.4141% | 103.603% and 97.7327% |
| COc1ccccc1-c1cc(N2CCN(C(=O)OC(C)(C)C)CC2)c(N)nn1 | 179.264% and 129.02% | 154.723% and 113.755% | 86.2709% and 84.3895% | 173.59% and 117.453% | 94.3574% and 85.8263% | 106.056% and 125.119% |
| CC(=O)C1=C(C)N(c2cccc(C(F)(F)F)c2)C(=O)N[C@@H]1c1ccc(C#N)nc1 [BAY-678] | 116.42% and 104.215% | 86.788% and 60.6455% | 154.648% and 117.069% | 95.0691% and 89.9598% | 123.826% and 98.3829% | 102.879% and 115.306% |
| C[C@@]1(Cc2ccc(C#N)cc2)C(=O)N(c2cc(Cl)cc(Cl)c2)c2ncc(C(=O)NC3(c4nc(C5CCC5)no4)CC3)n21 [BI 9446] | 120.452% and 119.438% | 141.276% and 120.817% | 73.271% and 85.2933% | 87.2778% and 108.945% | 115.902% and 114.683% | 106.853% and 94.898% |
| Cc1c(NC(=O)c2cc(C(N)=O)nc3cc(F)ccc23)c(C(F)(F)F)nn1Cc1ccc(C#N)cc1 [BAY-876] | 10.662% and 26.9321% | 13.3809% and 14.2138% | 36.4456% and 33.4484% | 36.255% and 13.5816% | 21.7392% and 19.9094% | 22.1552% and 34.1837% |
| Cn1cc(-c2ccc3occ(-c4ccccc4-c4ccccc4)c3n2)cn1 | 113.014% and 144.526% | 79.1768% and 87.7674% | 118.722% and 95.2756% | 122.009% and 96.5129% | 120.62% and 121.278% | 112.27% and 102.009% |
| Cc1ccc(-c2ccc3c(ccc4sc5c(c43)NC[C@@H](C)NC5=O)n2)cn1 | 131.751% and 124.635% | 132.52% and 124.216% | 114.172% and 105.969% | 99.6709% and 79.9055% | 108.383% and 98.1185% | 106.246% and 104.786% |
| CCCCN(Cc1ccccc1)C(=O)c1ccc(S(=O)(=O)Nc2ccccc2)cc1 | 128.543% and 118.777% | 114.906% and 147.848% | 116.29% and 115.073% | 99.5038% and 96.018% | 85.4191% and 92.3751% | 113.731% and 107.676% |
| CCN(C(=O)CO)[C@H]1CN(/C(=N\C#N)Nc2cccc(OC(F)F)c2)N=C1c1ccc(Cl)c(Cl)c1 | 122.514% and 121.772% | 131.133% and 123.792% | 95.5807% and 90.881% | 163.22% and 117.738% | 56.7523% and 64.6636% | 98.5958% and 108.473% |
